Earlier results in patent US12295958B2, “Ready-to-use injectable formulations” (Zoetis Services LLC, priority 2019, dated 2025).
Where a name gives a salt, the structure may show the parent alone. Read-outs that look alike come from different tables or passages of the source.

Columns and labels:
Pasteurella multocide = conditions: cats, single injection, Pasteurella multocide infections
S. intermedius = conditions: dogs, single injection, S. intermedius infections
[1] = clinical studies
S. canis = conditions: dogs, single injection, S. canis infections

caking after transport (0.15% Tween and ethyl oleate, glass bottles, transported by road (about 2 hours) and air (about 1 hour)) | caking (PVP K30 in addition with 0.5% Tween 80) | caking (addition of 0.5% Tween) | caking (addition of 0.5% polyethylene glycol-12-oleate) | resuspendability (ethyl oleate, 0.15% Tween 80 as flocculating agent) | dispersability of sediment (increasing concentrations of phospholipids (Lipoid S100), suspensions containing PEG-12-oleate) | caking on vibration (long chain fatty acid mixture with addition of phospholipid) | redispersion after vibration (suspension in mixture of long chain saturated and unsaturated fatty acids) | redispersion after vibration (suspensions in Miglyol 840 and Miglyol 812) | SMILES | time therapeutic dose concentrations are provided (Pasteurella multocide) | time therapeutic drug concentrations are maintained (S. intermedius) | clinical equivalence of a single injection [1] | time therapeutic drug concentrations are maintained (S. canis) | resuspendability (ethyl oleate suspension without Tween 80)
 |  |  |  |  |  |  |  |  | CO/N=C(\C(=O)N[C@@H]1C(=O)N2C(C(=O)O)=C([C@@H]3CCCO3)CS[C@H]12)c1csc(N)n1 [Convenia, (6R,7R)-7-[[(2Z)-(2-amino-4-thiazolyl)(methoxyimino)acetyl]amino]-8-oxo-3-[(2S)-tetrahydro-2-furanyl]-5-thia-1-azabicyclo[4.2.0]oct-2-ene-2-carboxylic acid, monosodium salt] | approximately 7 days | approximately 7 days | clinically equivalent to a 14-day oral antibiotic regimen | about 14 days | 
“rock solid” cake | did not solve the caking problem | hard cake | prevented caking | good resuspendability | less dispersable sediments | caking on vibration | dispersed readily | difficult to redisperse after vibration | CCN(CC)CCOC(=O)[C@@H]1N2C(=O)[C@@H](NC(=O)Cc3ccccc3)[C@H]2SC1(C)C [penethamate] |  |  |  |  | required vigorous shaking and vortexing to disperse the cake
